According to patent US20060205692A1, “1,1-and 1,2-Bisphosphonates as apoliprotein e modulators” (priority 2002, published 2006):

Test system: ApoE
Experiment: apoE secretion by PMA-differentiated THP-1 cells, apoE quantified by ELISA
Format: cell-based, human
Conditions: 3 days; for percent change in apoE secretion versus control at 25 µM / percent change in apoE secretion versus control at 50 µM / percent change in apoE secretion versus control at 100 µM: Homo sapiens, THP-1, 72 h
Text: The bisphosphonate compounds of the invention can modulate (increase or decrease) apoE levels in plasma and in tissues. The activities of the compounds can be determined in an in vitro cell assay comprising determining the modulatory effect of the test compound on the secretion of apoE by an apoE secreting cell line (e.g., a monocyte-macrophage cell line such as the THP-1 cell line, a liver derived cell line such as the HepG2 cell line, an intestinal derived cell line such as the CaCo2 cell line or a brain derived cell line such as the astrocytoma CCF-STTG1 cell line).
THP-1 cell line (ATCC TIB-202) are cultured in RPMI 1640 (with 2 mM of L-glutamine and 2 g/l of glucose, Invitrogen) supplemented with 2 g/l of sodium hydrogen carbonate (Fluka), 10 U/ml of penicillin, 10 μg/ml of streptomycin (Penicillin-Streptomycin, Invitrogen), 20 μM of 2-mercaptoethanol (Fluka) and 10% FCS (Amimed). Cells are incubated at 37° C. and 5% CO2.
Cells are seeded in 24 well tissue culture plates (Falcon), 2×10^5 cells in 500 μl of culture medium per well or 6 well plates for RT-PCR purpose, 1×10^6 cells in 2.5 ml of medium. PMA (Phorbol 12-myristate 13-acetate, Alexis), (stock in DMSO (Fluka) at 1 mg/ml) and other compounds are diluted in ethanol and added to the cells at an ethanol final concentration not exceeding 1%. Same volume of ethanol is added in controls. Plates are incubated for 3 days at 37° C. and 5% CO2 to allow cell differentiation and apoE secretion.
Medium contained in the wells is harvested and centrifuged 5 min at 1200 rpm. Supernatants are store at −20° C. until apoE quantification. The cell pellets are resuspended in PBS and counted with a ZI Coulter Counter. After a wash with PBS, adherent cells in the well bottoms are detached with trypsin-EDTA solution 10× (Invitrogen) diluted in PBS. The reaction is stopped with the addition of culture medium and the detached cells are counted.
ApoE was quantified by ELISA. 96 well plates (Costar) are coated with 5% of gelatine (from porcine skin, Fluka) in carbonate-bicarbonate buffer (Sigma) for 1 hour at 37° C. After removing the coating solution, 100 μl of THP-1 supernatant are added per well, diluted 5 times in buffer (PBS, 1% Top-Block (Juro), 0.1% Tween 20 (Fluka)). The incubation last 1 hour at 37° C., then the wells are washed 3 times with 200 μl of buffer. Plates are incubated for 1 hour at 37° C. with continuous stirring with the primary antibody (goat anti-human apoE IgG, Calbiochem) at a 10000-time dilution in buffer, 100 μl per well. After 3 washes, plates are incubated with the secondary antibody (rabbit anti-goat-IgG peroxidase conjugated, Sigma) diluted 5000 times, 100 μl per well, at 37° C. with shaking. Then the wells are washed 5 more times and the detection is achieved by adding 100 μl per well of o-phenylenediamine dihydrochloride (Sigma) and incubated for 15-20 minutes with shaking at room temperature. When the appropriated colour is reached, the reaction is stopped by adding 50 μl per well of 3 M sulfuric acid (Fluka) with shaking for 1 minute at room temperature. The absorbance is read at 492 nm versus 620 nm with a microplate photometer (Anthos Reader 2001).

CCOP(=O)(OCC)C(c1ccc(OCCCN(C)c2ccccn2)cc1)P(=O)(OCC)OCC [Tetraethyl 1-{4-[3-(methyl-pyridin-2-yl-amino)-propoxy]-phenyl}-methylidene-1,1-bisphosphonate]
percent change in apoE secretion versus control at 25 µM (compound 25 μM, 1.25 nM PMA): 375%
percent change in apoE secretion versus control at 25 µM (compound 25 μM, 2.5 nM PMA): 557%

CC(C)OP(=O)(OC(C)C)C(c1ccc(O)cc1)P(=O)(OC(C)C)OC(C)C [Tetraisopropyl 1-(4-hydroxy-phenyl)-methylidene-1,1-bisphosphonate]
percent change in apoE secretion versus control at 25 µM (compound 25 μM, 1.25 nM PMA): 290%
percent change in apoE secretion versus control at 25 µM (compound 25 μM, 2.5 nM PMA): 52%
percent change in apoE secretion versus control at 50 µM (compound 50 μM, 1.25 nM PMA): 399%
percent change in apoE secretion versus control at 50 µM (compound 50 μM, 2.5 nM PMA): 35%
percent change in apoE secretion versus control at 100 µM (compound 100 μM, 1.25 nM PMA): 488%
percent change in apoE secretion versus control at 100 µM (compound 100 μM, 2.5 nM PMA): 73%

COP(=O)(OC)C(c1ccc(O)cc1)P(=O)(OC)OC [Tetramethyl 1-(4-hydroxy-phenyl)methylidene-1,1-bisphosphonate]
% ApoE Change (compound 25 μM, 1.25 nM PMA): −7%
% ApoE Change (compound 25 μM, 2.5 nM PMA): −17%
% ApoE Change (compound 50 μM, 1.25 nM PMA): −27%
% ApoE Change (compound 50 μM, 2.5 nM PMA): −25%
% ApoE Change (compound 100 μM, 1.25 nM PMA): −19%
% ApoE Change (compound 100 μM, 2.5 nM PMA): −10%
